Data: patent publication US11020360B2, “Methods, compounds, compositions and vehicles for delivering 3-amino-1-propanesulfonic acid” (Bellus Health, Inc., priority 2006, dated 2021)
“And” between values parts separate entries of the source, which are not always exact repeats. Identical values can stand only once. Counter-ions that a name gives are not always drawn.

Columns and labels:
[1] = tested on: primary rat neuron culture; assay: In vitro metabolism of 3APS in primary rat neuron culture; type: in vitro ADME; conditions: primary neuron culture media
Experimental: The metabolism of 3APS was also studied in vitro in different types of cellular models. In some cases, the metabolism of 3APS was compared with that of γ-amino butyric acid (GABA).
The conversion of 3APS to 2-carboxyethanesulfonic acid was time-dependent and cell concentration-dependent. Incubation of 3APS (400 μM initial concentration) for six days in the cell culture media (containing 800,000 cells) produced with 48 μM of 2-carboxyethanesulfonic acid. Under the same experimental conditions, 5.4 μM succinic acid was detected starting from GABA (400 μM initial concentration).

[2] = PK brain and plasma levels of oral Compound A2 and 3-APS in mice; type: in vivo; conditions: oral 0.18 mmol/kg
Experimental: Compounds A2 and 3-aminopropanesulfonic acid were tested for pharmacokinetic parameters in mice. Parmacokinetic parameters (Cmax, Tmax, T½, AUC) are evaluated for 3APS after administration of a molar equivalent of each compound. Blood samples (approximately 1 ml) and brain samples are collected from each of 3 animals at time points 5, 15, 30 minutes, 1, 2, 4, 6, 12, and 24 hours. […] A 2-fold increase in plasma concentration (Cmax) of 3-APS was observed when orally administering Compound A2 compared to 3-APS.

[3] = Bioavailability of exemplary compounds in mice (3APS quantified in plasma); type: in vivo; conditions: compared with 3APS
Experimental: Selected exemplary compounds were tested for bioavailability in mice. Bioavailability estimates are performed for 3APS after administration of molar equivalent the selected compounds. […] The animals are anesthetized with isoflurane before blood collection (approximately 45 sec). Samples are collected at 5, 30, 60, 120, 180, 240 and 360 min post intravenous administration and at 15, 30, 60, 120, 180, 240 and 360 min post oral administration. One animal is used to obtain a baseline sample (pre-dose sample). Blood samples are collected into Sarstedt™ micro tubes (EDTA KE/1.3 ml), kept on ice until centrifugation at 4° C. at a minimum speed of 3000 rpm (1620 G) for 10 min. Plasma samples are transferred into Eppendorf™ tubes, immediately placed on dry ice and stored at −80° C. Plasma samples are stored frozen at […] pending analysis.
Compounds in mouse plasma are extracted using protein precipitation. Quantitation of 3APS in mouse plasma matrix is achieved using LC-MS detection. Sample concentration is calculated using a calibration curve.

[4] = Mouse whole blood stability; type: in vitro ADME; conditions: 37° C.
Experimental: Test compounds were incubated for a total of 240 minutes at 37° C. in whole mouse and whole human blood. The compounds were added at time-point 0 and sample aliquots were withdrawn at each time point (usually 0, 60 and 240 minutes). The samples were extracted using protein precipitation. Analysis of extracted samples was achieved using HPLC with MS detection. Several types of HPLC columns and mobile phase were used depending of the polarity of the compound. The compound stability was determined by the % of compound remaining at 240 minutes (peak response of compound at 240 minutes/peak response at 0 minutes×100).

[5] = Stability in water, at pH 1.5 and PBS; type: physicochemical; conditions: 37° C., 60 min
Experimental: Stability of exemplary compounds was determined in water, aqueous acidic solution (pH 1.5, HCl) and PBS (phosphate buffered saline) solution using ESI-MS (electrospray ionization mass spectrometry) as the detecting instruments. In general a 2 μg/mL pro-drug solution containing 1 μg/ml IS (internal standard) was prepared and incubated for 60 min. For water stability the incubation was performed at room temperature and for stability in acidic solution and in buffer. The incubation temperature was 37° C. Samples were analyzed for prodrug content at time points 0 and 60 min. using MS. The % changes in peak area ratio after 60 minutes for each test compound tested are calculated using the average values from six replicate runs. The compounds tested included Compounds A1 to A19, Compounds B5 and B6 and Compounds C1 to C26. Except for C26 which was found unstable at pH 1.5 and in PBS, all other compounds were judged to be stable under all conditions tested with less than about 15%-20% concentration change after 60 minutes.

[6] = Metabolic profiling of 14C-3APS in dogs; type: in vivo, male Beagle dogs
Experimental: (§1) Three single dose studies were conducted in mice, rats and dogs to determine the metabolic profile of ^14C-3APS in plasma, urine and feces. In the first study, twenty-seven male CD-1 mice received a single dose of 100 mg/kg (20 μCi/animal) of ^14C-3APS by oral gavage. Blood samples (3 animals/time point) were collected for 12 hr following drug administration while urine and feces (3 animals/time point) samples were collected for 96 hr. In the second study, eight male Sprague-Dawley rats received a single dose of 100 mg/kg (50 μCi/animal) of ^14C-3APS by oral gavage while in the third study, three male Beagle dogs received a single dose of 100 mg/kg (30 μCi/kg) of ^14C-3APS by oral gavage. For the rat and dog studies, blood samples were collected for 24 hr following drug administration while urine and feces samples were collected for 72 hr. All samples were analyzed for total radioactivity using appropriate sample preparation procedures and scintillation counting. Plasma and urine samples were also analyzed for 3APS and 3APS metabolites (2-carboxyethanesulfonic acid, 3-hydroxy-1-propanesulfonic acid and 3-acetylamino-1-propanesulfonic acid) concentrations using qualified HPLC and MS/MS methods.

[7] = Metabolic profiling of 14C-3APS in rats; type: in vivo, male Sprague-Dawley rats
Experimental: as §1

[8] = Single oral and IV administration of 14C-3APS to rats; type: in vivo, male Sprague-Dawley rats; conditions: for AUC0-∞ / AUC(0-inf): 100 mg/kg 14C-3APS, rats, 100 mg/kg; for AUC(0-inf): male, Sprague-Dawley, rat, plasma
Experimental: The purpose of this study was to investigate the absorption, metabolism and excretion profiles of ^14C-3APS following a single intravenous bolus and oral administration to rats. Thirty-six male Sprague-Dawley rats received a single 100 mg/kg (˜50 μCi/animal) dose of ^14C-3APS by an IV bolus injection (water or isotonic saline solution) and an additional 36 male rats received the same dose level by oral gavage (in water). Blood, urine, feces, brain and CSF samples were collected for up to 72 hr following dose administration. Plasma, urine, brain and CSF concentrations of 3APS and 2-carboxyethanesulfonic acid (3APS major metabolite) were measured using LC and MS/MS detection method. Plasma, urine, feces, brain and CSF samples were analyzed for total radioactivity using appropriate sample preparation procedures and scintillation counting.

[9] = Absorption, excretion and plasma kinetics of 14C-3APS in humans; type: in vivo, human
Excerpt: Following the identification of 3APS metabolites, plasma and urine samples from this human AME study were reanalyzed for 3APS and 3APS metabolite (2-carboxyethanesulfonic acid, 3-hydroxy-1-propanesulfonic acid and 3-acetylamino-1-propanesulfonic acid) concentrations using qualified HPLC and MS/MS methods to determine the metabolic profile of ^14C-3APS in human.

[10] = Metabolic profiling of 14C-3APS in mice; type: in vivo, male CD-1 mice
Experimental: as §1

[11] = Rat plasma, analyte after single oral 100 mg/kg 14C-3APS
[12] = male, Sprague-Dawley, rat, plasma, po, 100 mg/kg, Rat plasma, analyte after single oral 100 mg/kg 14C-3APS
[13] = IV, individual animals 1001-1004
[14] = PO, individual animals 3001-3004
[15] = Mouse plasma, analyte after single oral 100 mg/kg 14C-3APS
[16] = male, CD-1, mouse, plasma, po, 100 mg/kg, Mouse plasma, analyte after single oral 100 mg/kg 14C-3APS

SMILES: NCC1(CC(=O)O)CCCCC1 [gabapentin]
- effect on the conversion of 3APS to 2-carboxyethanesulfonic acid [1]: no significant effect

SMILES: CC(C)[C@H](N)C(=O)NCCCS(=O)(=O)O [Compound A2]
- Brain concentration of 3-APS [2]: observed
- effect on bioavailability of 3APS [3]: increasing the bioavailability of 3APS
- Blood stability (% of compound remaining after 240 min.) Mouse Blood [4]: ++ (++: 30-75%)

SMILES: O=C(CCNNC(=O)c1ccncc1)NCc1ccccc1 [Nialamide]
- effect on the conversion of 3APS to 2-carboxyethanesulfonic acid [1]: reduced the formation of 2-carboxyethanesulfonic acid (from 3APS) but to a lesser extent

SMILES: C=CC(N)CCC(=O)O (centres unmarked) [vigabatrin]
- effect on the conversion of 3APS to 2-carboxyethanesulfonic acid [1]: significantly inhibited

SMILES: Cc1oc(=O)oc1COC(=O)NCCCS(=O)(=O)O [Compound C26, 3-({[(5-methyl-2-oxo-1,3-dioxol-4-yl)methoxy]carbonyl}amino)-1-propanesulfonic Acid Sodium Salt]
- Stability in PBS [5]: unstable
- Stability in aqueous acidic solution (pH 1.5, HCl) [5]: unstable

SMILES: O=C(O)CCS(=O)(=O)O [2-carboxyethanesulfonic acid]
- AUC0-τ ([6]; Dog plasma, analyte after single oral 100 mg/kg 14C-3APS): 30.5 µmol·min/mL
- % of Total Radioactivity, Urine ([6]; Dog, amount excreted, single oral 100 mg/kg 14C-3APS, 100 mg/kg): 77%
- Tmax ([6]; male, Beagle, dog, plasma, po, 100 mg/kg, Dog plasma, analyte after single oral 100 mg/kg 14C-3APS): 12 h
- Cmax ([6]; male, Beagle, Dog plasma, analyte (3APS or metabolite) after single oral 100 mg/kg 14C-3APS): 31.2 µM
- AUC0-τ [7, 11]: 12.7 µmol·min/mL
- AUC∞ [7, 11]: 13.6 µmol·min/mL
- T1/2 ([7]; Rat plasma, analyte after single oral 100 mg/kg 14C-3APS, 100 mg/kg): 3.99 h
- % of Total Radioactivity, Plasma ([7]; Rat, AUC0-∞ analyte/AUC total radioactivity, single oral 100 mg/kg 14C-3APS): 30%
- % of Total Radioactivity, Urine ([7]; Rat, amount excreted, single oral 100 mg/kg 14C-3APS): 62%
- Tmax [7, 12]: 4 h
- half-life [7, 12]: ~4 h
- Cmax ([7]; male, Sprague-Dawley, Rat plasma, analyte (3APS or metabolite) after single oral 100 mg/kg 14C-3APS): 23.4 µM
- AUC0-∞ [8, 13]: 144 µM·h and 184 µM·h and 125 µM·h
- % of total radioactivity (AUC0-∞ analyte/AUC total radioactivity) [8, 13]: 6.5% and 9.1% and 9.8% and 9.9%
- AUC0-∞ [8, 14]: 153 µM·h and 177 µM·h and 229 µM·h
- % of total radioactivity (AUC0-∞ analyte/AUC total radioactivity) [8, 14]: 26.5% and 21.4% and 28.2% and 29.3%
- AUC(0-inf) ([8]; iv, Mean): 140 µM·h
- AUC(0-inf) ([8]; iv, individual animals 1001-1004): 105 µM·h
- AUC(0-inf) ([8]; po, Mean): 198 µM·h
- AUC(0-inf) ([8]; po, individual animals 3001-3004): 232 µM·h
- time of maximum plasma concentration ([9]; healthy subjects, analyte after oral 14C-3APS): 6.5 h
- % of total radioactivity in plasma based on AUC0-τ ([9]; healthy subjects, oral 14C-3APS): 49%
- % of total amount of radioactivity excreted in urine ([9]; human urine): 79%
- AUC0-τ [10, 15]: 7.26 µmol·min/mL
- AUC∞ [10, 15]: 7.56 µmol·min/mL
- % of Total Radioactivity, Plasma ([10]; Mouse, AUC0-∞ analyte/AUC total radioactivity, single oral 100 mg/kg 14C-3APS): 30%
- % of Total Radioactivity, Urine ([10]; Mouse, amount excreted, single oral 100 mg/kg 14C-3APS, 100 mg/kg): 62%
- Tmax [10, 16]: 2 h
- half-life [10, 16]: ~2 h
- Cmax ([10]; male, CD-1, Mouse plasma, analyte (3APS or metabolite) after single oral 100 mg/kg 14C-3APS): 18 µM
